Measured values published in the OligoGym collection.
HELM strings list units from the 5' end as sugar, base in round brackets, then linkage (d deoxyribose, r ribose, m 2'-O-methyl, p phosphodiester). Strings are as the collection lists them; they lack the last nucleoside at the 3' end of the tested compound. [moe] = 2'-O-(2-methoxyethyl) (MOE); [sp] = phosphorothioate linkage; [m5C] = 5-methylcytosine

These substances were tested against C9ORF72 (assay: mouse, dose not given). Settings: ASO.

Point of comparison: “RNA1{[moe]([m5C])[sp].[moe](G)p.[moe](G)p.[moe]([m5C])p.[moe]([m5C])p.d([m5C])[sp].d([m5C])[sp].d(T)[sp].d(A)[sp].d(G)[sp].d([m5C])[sp].d(G)[sp].d([m5C])[sp].d(G)[sp].[moe]([m5C])p.[moe](G)p.[moe](A)[sp].[moe]([m5C])}$$$$ (last 3' nucleoside missing)”, 3 h FOB score 4 score 0-7. Against it:
- RNA1{[moe]([m5C])[sp].[moe]([m5C])[sp].[moe]([m5C])[sp].[moe](G)[sp].[moe](G)[sp].d([m5C])[sp].d([m5C])[sp].d([m5C])[sp].d([m5C])[sp].d(T)[sp].d(A)[sp].d(G)[sp].d([m5C])[sp].d(G)[sp].d([m5C])[sp].[moe](G)[sp].[moe]([m5C])[sp].[moe](G)[sp].[moe](A)}$$$$ (last 3' nucleoside missing) — higher, 6 score 0-7
- RNA1{[moe]([m5C])[sp].[moe]([m5C])p.[moe](T)p.[moe](A)p.[moe](G)p.[moe]([m5C])[sp].d(G)[sp].d([m5C])[sp].d(G)[sp].d([m5C])[sp].d(G)[sp].d(A)[sp].d([m5C])[sp].d(T)[sp].[moe]([m5C])p.[moe]([m5C])[sp].[moe](T)}$$$$ (last 3' nucleoside missing) — higher, 6 score 0-7
- RNA1{[moe](G)[sp].[moe]([m5C])p.[moe]([m5C])p.d(T)[sp].d(T)[sp].d(A)[sp].d([m5C])[sp].d(T)[sp].d([m5C])[sp].d(T)[sp].d(A)[sp].d(G)[sp].d(G)[sp].[moe](A)p.[moe]([m5C])p.[moe]([m5C])p.[moe](A)p.[moe](A)[sp].[moe](G)}$$$$ (last 3' nucleoside missing) — lower, 2 score 0-7
- RNA1{[moe](G)[sp].[moe]([m5C])p.[moe]([m5C])p.[moe]([m5C])p.d([m5C])[sp].d(T)[sp].d(A)[sp].d(G)[sp].d([m5C])[sp].d(G)[sp].d([m5C])[sp].d(G)[sp].d([m5C])[sp].d(G)[sp].[moe](A)p.[moe]([m5C])p.[moe](T)p.[moe]([m5C])[sp].[moe]([m5C])}$$$$ (last 3' nucleoside missing) — lower, 1.25 score 0-7
- RNA1{[moe](G)[sp].[moe](G)p.[moe]([m5C])p.[moe]([m5C])p.d([m5C])[sp].d([m5C])[sp].d(T)[sp].d(A)[sp].d(G)[sp].d([m5C])[sp].d(G)[sp].d([m5C])[sp].d(G)[sp].d([m5C])[sp].[moe](G)p.[moe](A)p.[moe]([m5C])p.[moe](T)[sp].[moe]([m5C])}$$$$ (last 3' nucleoside missing) — lower, 1.5 score 0-7
- RNA1{[moe](T)[sp].[moe]([m5C])p.[moe](T)p.[moe](G)p.[moe](T)p.[moe]([m5C])p.d(T)[sp].d(T)[sp].d(T)[sp].d(G)[sp].d(G)[sp].d(A)[sp].d(G)[sp].d([m5C])[sp].d([m5C])[sp].d([m5C])[sp].[moe](A)p.[moe](A)[sp].[moe](A)}$$$$ (last 3' nucleoside missing) — higher, 4.25 score 0-7
- RNA1{[moe](G)[sp].[moe](G)p.[moe]([m5C])p.[moe](T)p.d(G)[sp].d([m5C])[sp].d(G)[sp].d(G)[sp].d(T)[sp].d(T)[sp].d(G)[sp].d(T)[sp].d(T)[sp].[moe](T)p.[moe]([m5C])p.[moe]([m5C])p.[moe]([m5C])[sp].[moe](T)}$$$$ (last 3' nucleoside missing) — higher, 6 score 0-7
- RNA1{[moe](G)[sp].[moe]([m5C])p.[moe]([m5C])p.[moe]([m5C])p.[moe]([m5C])p.[moe](T)p.d(A)[sp].d(G)[sp].d([m5C])[sp].d(G)[sp].d([m5C])[sp].d(G)[sp].d([m5C])[sp].d(G)[sp].d(A)[sp].d([m5C])[sp].[moe](T)p.[moe]([m5C])[sp].[moe]([m5C])}$$$$ (last 3' nucleoside missing) — lower, 0 score 0-7
- RNA1{[moe]([m5C])[sp].[moe]([m5C])p.[moe](G)p.[moe](G)p.[moe]([m5C])p.[moe]([m5C])p.d([m5C])[sp].d([m5C])[sp].d(T)[sp].d(A)[sp].d(G)[sp].d([m5C])[sp].d(G)[sp].d([m5C])[sp].d(G)[sp].[moe]([m5C])p.[moe](G)[sp].[moe](A)}$$$$ (last 3' nucleoside missing) — higher, 5.75 score 0-7
- RNA1{[moe](T)[sp].[moe]([m5C])p.[moe](T)p.[moe](G)p.[moe](T)p.[moe]([m5C])p.[moe](T)[sp].d(T)[sp].d(T)[sp].d(G)[sp].d(G)[sp].d(A)[sp].d(G)[sp].d([m5C])[sp].d([m5C])[sp].[moe]([m5C])[sp].[moe](A)}$$$$ (last 3' nucleoside missing) — higher, 6.25 score 0-7
- RNA1{[moe](G)[sp].[moe](G)p.[moe](T)p.[moe](T)p.[moe](A)p.[moe](A)p.[moe](T)p.d([m5C])[sp].d(T)[sp].d(T)[sp].d(T)[sp].d(A)[sp].d(T)[sp].d([m5C])[sp].d(A)[sp].d(G)[sp].d(G)[sp].[moe](T)[sp].[moe]([m5C])}$$$$ (last 3' nucleoside missing) — higher, 5.75 score 0-7
- RNA1{[moe](T)[sp].[moe](G)p.[moe](G)p.[moe](T)p.[moe](T)p.[moe](A)p.[moe](A)p.d(T)[sp].d([m5C])[sp].d(T)[sp].d(T)[sp].d(T)[sp].d(A)[sp].d(T)[sp].d([m5C])[sp].d(A)[sp].d(G)[sp].[moe](G)[sp].[moe](T)}$$$$ (last 3' nucleoside missing) — lower, 3.75 score 0-7
- RNA1{[moe](G)[sp].[moe](G)p.[moe](T)p.[moe](T)p.[moe](A)p.[moe](A)p.d(T)[sp].d([m5C])[sp].d(T)[sp].d(T)[sp].d(T)[sp].d(A)[sp].d(T)[sp].d([m5C])[sp].d(A)[sp].d(G)[sp].[moe](G)p.[moe](T)[sp].[moe]([m5C])}$$$$ (last 3' nucleoside missing) — lower, 1.5 score 0-7
- RNA1{[moe](G)[sp].[moe](G)p.[moe](T)p.d(T)[sp].d(A)[sp].d(A)[sp].d(T)[sp].d([m5C])[sp].d(T)[sp].d(T)[sp].d(T)[sp].d(A)[sp].d(T)[sp].[moe]([m5C])p.[moe](A)p.[moe](G)p.[moe](G)p.[moe](T)[sp].[moe]([m5C])}$$$$ (last 3' nucleoside missing) — lower, 0 score 0-7
- RNA1{[moe]([m5C])[sp].[moe](A)p.[moe](G)p.[moe](G)p.[moe]([m5C])p.[moe](T)p.d(G)[sp].d([m5C])[sp].d(G)[sp].d(G)[sp].d(T)[sp].d(T)[sp].d(G)[sp].d(T)[sp].d(T)[sp].d(T)[sp].[moe]([m5C])p.[moe]([m5C])[sp].[moe]([m5C])}$$$$ (last 3' nucleoside missing) — lower, 2 score 0-7
- RNA1{[moe]([m5C])[sp].[moe](T)p.[moe](G)p.d([m5C])[sp].d(G)[sp].d(A)[sp].d(T)[sp].d([m5C])[sp].d([m5C])[sp].d([m5C])[sp].d([m5C])[sp].d(A)[sp].d(T)[sp].[moe](T)p.[moe]([m5C])p.[moe]([m5C])p.[moe](A)p.[moe](G)[sp].[moe](T)}$$$$ (last 3' nucleoside missing) — lower, 1.75 score 0-7
- RNA1{[moe]([m5C])[sp].[moe](T)p.[moe](G)p.[moe]([m5C])p.[moe](G)p.[moe](A)p.d(T)[sp].d([m5C])[sp].d([m5C])[sp].d([m5C])[sp].d([m5C])[sp].d(A)[sp].d(T)[sp].d(T)[sp].d([m5C])[sp].d([m5C])[sp].[moe](A)p.[moe](G)[sp].[moe](T)}$$$$ (last 3' nucleoside missing) — lower, 0.25 score 0-7
- RNA1{[moe]([m5C])[sp].[moe]([m5C])p.[moe]([m5C])p.[moe](T)p.[moe](A)p.[moe](G)[sp].d([m5C])[sp].d(G)[sp].d([m5C])[sp].d(G)[sp].d([m5C])[sp].d(G)[sp].d(A)[sp].d([m5C])[sp].[moe](T)p.[moe]([m5C])[sp].[moe]([m5C])}$$$$ (last 3' nucleoside missing) — lower, 3 score 0-7
- RNA1{[moe]([m5C])[sp].[moe](A)p.[moe](G)p.[moe](G)p.[moe]([m5C])p.d(T)[sp].d(G)[sp].d([m5C])[sp].d(G)[sp].d(G)[sp].d(T)[sp].d(T)[sp].d(G)[sp].d(T)[sp].[moe](T)p.[moe](T)p.[moe]([m5C])[sp].[moe]([m5C])}$$$$ (last 3' nucleoside missing) — higher, 5 score 0-7
- RNA1{[moe]([m5C])[sp].[moe]([m5C])p.[moe](T)p.[moe](A)[sp].d(G)[sp].d([m5C])[sp].d(G)[sp].d([m5C])[sp].d(G)[sp].d([m5C])[sp].d(G)[sp].d(A)[sp].[moe]([m5C])p.[moe](T)p.[moe]([m5C])p.[moe]([m5C])[sp].[moe](T)}$$$$ (last 3' nucleoside missing) — lower, 3 score 0-7
- RNA1{[moe](G)[sp].[moe](G)p.[moe]([m5C])p.[moe](T)p.[moe](G)p.[moe]([m5C])p.d(G)[sp].d(G)[sp].d(T)[sp].d(T)[sp].d(G)[sp].d(T)[sp].d(T)[sp].d(T)[sp].d([m5C])[sp].[moe]([m5C])p.[moe]([m5C])[sp].[moe](T)}$$$$ (last 3' nucleoside missing) — higher, 5.25 score 0-7
- RNA1{[moe]([m5C])[sp].[moe]([m5C])p.[moe](G)p.[moe](G)p.[moe]([m5C])p.[moe]([m5C])p.[moe]([m5C])p.d([m5C])[sp].d(T)[sp].d(A)[sp].d(G)[sp].d([m5C])[sp].d(G)[sp].d([m5C])[sp].d(G)[sp].d([m5C])[sp].d(G)[sp].[moe](A)[sp].[moe]([m5C])}$$$$ (last 3' nucleoside missing) — lower, 2 score 0-7
- RNA1{[moe](G)[sp].[moe]([m5C])p.[moe]([m5C])[sp].d(T)[sp].d(T)[sp].d(A)[sp].d([m5C])[sp].d(T)[sp].d([m5C])[sp].d(T)[sp].d(A)[sp].[moe](G)p.[moe](G)p.[moe](A)p.[moe]([m5C])p.[moe]([m5C])[sp].[moe](A)}$$$$ (last 3' nucleoside missing) — lower, 1.25 score 0-7
- RNA1{[moe]([m5C])[sp].[moe]([m5C])p.[moe](G)p.[moe](G)p.[moe]([m5C])p.[moe]([m5C])p.d([m5C])[sp].d([m5C])[sp].d(T)[sp].d(A)[sp].d(G)[sp].d([m5C])[sp].d(G)[sp].d([m5C])[sp].d(G)[sp].d([m5C])[sp].[moe](G)p.[moe](A)[sp].[moe]([m5C])}$$$$ (last 3' nucleoside missing) — lower, 3.5 score 0-7
